Data on 36 compounds can be found in patent US11325929B2 (VivaVisionShanghaiLtd, priority 2017, dated 2022).

Like-named read-outs stand apart in the source and are kept apart here. Some results are limits rather than exact numbers.

The assay has as its system human T lymphocyte strain Jurkat (ATCC TIB-152) adhesion to ICAM-1. Kind of assay: T-cell adhesion assay (Jurkat cells on ICAM-1 coated plates). Type of assay: cell-based. As to conditions: BCECF-AM labelled Jurkat cells, ICAM-1 coated plate, fluorescence readout, read-out: EC50 of cell adhesion and inhibition. As for the experimental part: Cell Adhesion Inhibition Experiments:
T-cell adhesion assay was performed using human T lymphocyte strain Jurkat (ATCC TIB-152): goat Anti-Human IgG (Fc specific) (Sigma 18885) was diluted to 10 μg/ml in PBS, incubated 100 μL per well/96 well plate at 4° C. for 12 hours. Liquid in the well plate was poured off, blocked with 200 μL of 1% BSA at 37° C. for 90 minutes, and washed three times with PBS. 50 μL of 1 μg/mL ICAM-1 (containing 0.1% BSA, 0.01% Tween 20) was added to each well and incubated at 37° C. for 3 hours. The plate was washed 3 times with assay buffer (20 mM HEPES pH 7.6, 140 mM NaCl, 1 mM MgCl2, 1 mM MnCl2, 0.2% glucose).
The Jurkat […] was centrifuged at 100-G, and cells were resuspended in an assay buffer (20 mM HEPES pH 7.6, 140 mM NaCl, 1 mM MgCl2, 1 mM MnCl2, 0.2% glucose) at 37° C.
2 μl of 1 mM of BCECF-AM per mL of the cell suspension was added. Incubated at 37° C. for 30 minutes, stirred up every 10 minutes during the incubation. After the incubation, the cells were washed with assay buffer at 37° C. The cells were suspended to a concentration of 6×10^6/mL.
The inhibitor was diluted to a final concentration of 2× in assay buffer, and 50 μL of the compound solution and […] of Jurkat cells were mixed at room temperature, and incubated at 37° C. for 30 minutes. 100 μL/well of cells and inhibitors were added to the plate and incubated for 1 hour at room temperature. The total fluorescence was measured by a fluorometer: ex: 485; em: 530; cutoff: 530 to measure the total fluorescence. The plate was washed once with the assay buffer and the fluorescence was measured with a fluorometer: ex: 485; em: 530; cutoff. The results are plotted as inhibition-concentration plots and EC50 is calculated using standard methods.

For the compound “2-(2,6-dichloro-4-(2-(methyl(3-hydroxyphenyl)phosphoryl)ethyl)benzylamino)-3-(3,5-(dimethylsulfonyl)phenyl)propionic Acid [Example 36]”, the concentration giving a half-maximal response (EC50) amounted to 30 nM.

As for `CS(=O)(=O)c1cccc(C[C@H](NC(=O)c2c(Cl)cc(CCP(=O)(O)c3ccccc3)cc2Cl)C(=O)O)c1` [Example 1, (2s)-2-(2,6-dichloro-4-(2-(hydroxy(phenyl)phosphoryl)ethyl)benzamido)-3-(3-(methylsulfonyl)phenyl)propionic Acid], the EC50 (Homo sapiens) turned out to be 30 nM.

With `CS(=O)(=O)c1cccc(C[C@H](NC(=O)c2c(Cl)cc(C#CP(=O)(O)c3cccc(O)c3)cc2Cl)C(=O)O)c1` [Example 2], where the note is “Homo sapiens”, the EC50 was 9.4 nM.

As to `CS(=O)(=O)c1cccc(C[C@H](NC(=O)c2c(Cl)cc(CCP(=O)(O)c3cccc(O)c3)cc2Cl)C(=O)O)c1` [Example 3, (2s)-2-(2,6-dichloro-4-(2-(hydroxy(m-hydroxyphenyl)phosphoryl)ethyl)benzamido)-3-(3-(methylsulfonyl)phenyl)propionic Acid], the EC50 (Homo sapiens) came to 8.5 nM.

As to `COP(=O)(C#Cc1cc(Cl)c(C(=O)N[C@@H](Cc2cccc(S(C)(=O)=O)c2)C(=O)O)c(Cl)c1)c1ccccc1` (stereo partly drawn) [Example 5], the EC50 (Homo sapiens) came out at 22 nM.

With `CCOP(=O)(CCc1cc(Cl)c(C(=O)N[C@@H](Cc2cccc(S(C)(=O)=O)c2)C(=O)O)c(Cl)c1)c1cccc(O)c1` (stereo partly drawn) [Example 6, (2s)-2-(2,6-dichloro-4-(2-(ethoxy(m-hydroxyphenyl)phosphoryl)ethyl)benzamido)-3-(3-(methylsulfonyl)phenyl)propionic Acid], the EC50 (Homo sapiens) was 17 nM.

Turning to `COP(=O)(C#Cc1cc(Cl)c(C(=O)N[C@@H](Cc2cccc(S(C)(=O)=O)c2)C(=O)O)c(Cl)c1)c1cccc(O)c1` (stereo partly drawn) [Example 7], the EC50 (Homo sapiens) is 7.2 nM.

For `COP(=O)(CCc1cc(Cl)c(C(=O)N[C@@H](Cc2cccc(S(C)(=O)=O)c2)C(=O)O)c(Cl)c1)c1cccc(O)c1` (stereo partly drawn) [Example 8, (2s)-2-(2,6-dichloro-4-(2-(methoxy(3-hydroxyphenyl)phosphoryl)ethyl)benzylamido)-3-(3-(methylsulfonyl)phenyl)propionic Acid], under “Homo sapiens”, the EC50 was 6.2 nM.

With `CP(=O)(C#Cc1cc(Cl)c(C(=O)N[C@@H](Cc2cccc(S(C)(=O)=O)c2)C(=O)O)c(Cl)c1)c1ccccc1` (stereo partly drawn) [Example 9], where the note is “Homo sapiens”, the EC50 turned out to be 11.8 nM.

For `CP(=O)(CCc1cc(Cl)c(C(=O)N[C@@H](Cc2cccc(S(C)(=O)=O)c2)C(=O)O)c(Cl)c1)c1ccccc1` (stereo partly drawn) [Example 10, (2s)-2-(2,6-dichloro-4-(2-(methyl(phenyl)phosphoryl)ethyl)benzamide)-3-(3-(methylsulfonyl)phenyl)propionic Acid], the EC50 (Homo sapiens) was found to be 78 nM.

Regarding `CP(=O)(C#Cc1cc(Cl)c(C(=O)N[C@@H](Cc2cccc(S(C)(=O)=O)c2)C(=O)O)c(Cl)c1)c1cccc(O)c1` (stereo partly drawn) [Example 11], for the setting “Homo sapiens”, the EC50 came out at 13.5 nM.

On to `COc1cccc(P(=O)(C#Cc2cc(Cl)c(C(=O)N[C@@H](Cc3cccc(S(C)(=O)=O)c3)C(=O)O)c(Cl)c2)OC)c1` (stereo partly drawn) [Example 12], for which, for the setting “Homo sapiens”, the EC50 amounted to 29 nM.

Regarding `COc1cccc(P(=O)(O)C#Cc2cc(Cl)c(C(=O)N[C@@H](Cc3cccc(S(C)(=O)=O)c3)C(=O)O)c(Cl)c2)c1` [Example 13], the EC50 (Homo sapiens) came to 29 nM.

`CP(=O)(CCc1cc(Cl)c(C(=O)N[C@@H](Cc2cccc(S(C)(=O)=O)c2)C(=O)O)c(Cl)c1)c1cccc(O)c1` (stereo partly drawn) [Example 14]: under “Homo sapiens”, the concentration for a half-maximal effect (EC50) worked out at 8.5 nM.

Take `CP(=O)(C#Cc1cc(Cl)c(C(=O)N[C@@H](Cc2cccc(S(C)(=O)=O)c2)C(=O)O)c(Cl)c1)c1ccc(O)cc1` (stereo partly drawn) [Example 15]: the EC50 (Homo sapiens) came to 1.8 nM.

For `CS(=O)(=O)c1cccc(C[C@H](NC(=O)c2c(Cl)cc(C#CP(=O)(O)c3ccccc3)cc2Cl)C(=O)O)c1` [Example 16], the EC50 (Homo sapiens) came out at 7.2 nM.

With `CP(=O)(CCc1cc(Cl)c(C(=O)N[C@@H](CNC(=O)c2cccs2)C(=O)O)c(Cl)c1)c1cccc(O)c1` (stereo partly drawn) [Example 17, (2s)-2-(2,6-dichloro-4-(2-(methyl(3-hydroxyphenyl)phosphoryl)ethyl)benzamido)-3-(2-thenoylamide)propyl Acid], where the note is “Homo sapiens”, the half-maximal effective concentration (EC50) came out at 15 nM.

Turning to `CP(=O)(CCc1cc(Cl)c(C(=O)N[C@@H](CN/C(=N\C#N)N2CC[C@@H](O)C2)C(=O)O)c(Cl)c1)c1cccc(O)c1` (stereo partly drawn) [Example 19, (2s)-3-((R)—N′-cyano-3-hydroxytetrahydropyrrol-1-formamidino)-2-(2,6-dichloro-4-(2-(methyl(3-hydroxyphenyl)phosphoryl)ethyl)benzamido)propionic Acid], the EC50 (Homo sapiens) worked out at 230 nM.

As to `CCP(=O)(CCc1cc(Cl)c(C(=O)N[C@@H](Cc2cccc(S(C)(=O)=O)c2)C(=O)O)c(Cl)c1)c1cccc(O)c1` (stereo partly drawn) [Example 21], under “Homo sapiens”, the concentration for a half-maximal effect (EC50) is 7.3 nM.

Take `CS(=O)(=O)c1cccc(C[C@H](NC(=O)c2c(Cl)cc(CCP(=O)(c3cccc(O)c3)C3CC3)cc2Cl)C(=O)O)c1` (stereo partly drawn) [Example 22]: the EC50 (Homo sapiens) was determined as 22 nM.

Take `CCCCP(=O)(CCc1cc(Cl)c(C(=O)N[C@@H](Cc2cccc(S(C)(=O)=O)c2)C(=O)O)c(Cl)c1)c1cccc(O)c1` (stereo partly drawn) [Example 23]: the EC50 (Homo sapiens) is 61 nM.

For the compound `CP(=O)(CCc1cc(Cl)c(C(=O)N[C@@H](Cc2cccc(S(C)(=O)=O)c2)C(=O)O)c(Cl)c1)c1ccc2ccoc2c1` (stereo partly drawn) [Example 25], the EC50 (Homo sapiens) turned out to be 63 nM.

For `CP(=O)(CCc1cc(Cl)c(C(=O)N[C@@H](Cc2cccc(S(C)(=O)=O)c2)C(=O)O)c(Cl)c1)c1cc2ccccc2o1` (stereo partly drawn) [Example 26], the EC50 (Homo sapiens) is 23 nM.

With `C[P@](=O)(CCc1cc(Cl)c(C(=O)N[C@@H](Cc2cccc(S(C)(=O)=O)c2)C(=O)O)c(Cl)c1)c1cccc(O)c1` [Example 30], the EC50 (Homo sapiens) was determined as 7.2 nM.

As to `C[P@@](=O)(CCc1cc(Cl)c(C(=O)N[C@@H](Cc2cccc(S(C)(=O)=O)c2)C(=O)O)c(Cl)c1)c1cccc(O)c1` [Example 31], for the setting “Homo sapiens”, the EC50 came out at 7.1 nM.

For the compound `CCOP(=O)(/C=C/c1cc(Cl)c(C(=O)N[C@@H](Cc2cccc(S(C)(=O)=O)c2)C(=O)O)c(Cl)c1)c1cccc(O)c1` (stereo partly drawn) [Example 32, (S,E)-2-(4-(2-(3-hydroxyphenyl)phosphonovinyl)-2,6-dichlorobenzamide)-3-(3-(methylsulfonyl)phenyl)propionic Acid], the 50% effective concentration (EC50) (Homo sapiens) came out at 3.7 nM.

Regarding `CP(=O)(CCc1cc(Cl)c(C(=O)N[C@@H](Cc2cccc(S(C)(=O)=O)c2)C(=O)O)c(Cl)c1)c1ccc(O)cc1` (stereo partly drawn) [Example 33], the EC50 (Homo sapiens) amounted to 10.8 nM.

On to `CP(=O)(CCc1cc(Cl)c(C(=O)N[C@@H](CNC(=O)c2cccc(O)c2)C(=O)O)c(Cl)c1)c1cccc(O)c1` (stereo partly drawn) [Example 34, (2s)-2-(2,6-dichloro-4-(2-(methyl(3-hydroxyphenyl)phosphoryl)ethyl)benzamido)-3-(3-hydroxybenzamido)propionic Acid], for which the EC50 (Homo sapiens) amounted to 12.5 nM.

On to `CP(=O)(CCc1cc(Cl)c(C(=O)N[C@@H](CNC(=O)c2cc(O)cc(O)c2)C(=O)O)c(Cl)c1)c1cccc(O)c1` (stereo partly drawn) [Example 35, (2s)-2-(2,6-dichloro-4-(2-(methyl(3-hydroxyphenyl)phosphoryl)ethyl)benzamido)-3-(3,5-dihydroxybenzamido)propionic Acid], for which the EC50 (Homo sapiens) was 3.8 nM.

Consider `CP(=O)(CCc1cc(Cl)c(C(=O)N[C@@H](CCCCNS(C)(=O)=O)C(=O)O)c(Cl)c1)c1cccc(O)c1` (stereo partly drawn) [Example 37], for which the EC50 (Homo sapiens) was more than 1000 nM.

Consider `CP(=O)(CCc1cc(Cl)c(C(=O)N[C@@H](Cc2cncc(S(C)(=O)=O)c2)C(=O)O)c(Cl)c1)c1cccc(O)c1` (stereo partly drawn) [Example 38], for which the EC50 (Homo sapiens) was 24 nM.

As to `CP(=O)(CCc1cc(Cl)c(C(=O)N[C@@H](CC2CCN(S(C)(=O)=O)C2)C(=O)O)c(Cl)c1)c1cccc(O)c1` (stereo partly drawn) [Example 42], under “Homo sapiens”, the EC50 is 150 nM.

For the compound `CP(=O)(CCc1cc(Cl)c(C(=O)N[C@@H](CN/C(=N\C#N)N2C[C@@H](O)[C@H](O)C2)C(=O)O)c(Cl)c1)c1cccc(O)c1` (stereo partly drawn) [Example 45, (2s)-3-((trans)-N′-cyano-3,4-dihydroxypyrrolidine-1-formamidino)-2-(2,6-dichloro-4-(2-(methyl(3-hydroxyphenyl)phosphoryl)ethyl)benzamido)propionic Acid], the EC50 (Homo sapiens) is more than 1000 nM.

Consider `CP(=O)(CCc1cc(Cl)c(C(=O)N[C@@H](CN/C(=N\C#N)N(CCO)CCO)C(=O)O)c(Cl)c1)c1cccc(O)c1` (stereo partly drawn) [Example 46, (2s)-3-(2-cyano-3,3-bis(2-hydroxyethyl)guanidino)-2-(2,6-dichloro-4-(2-(methyl(3-hydroxyphenyl)phosphoryl)ethyl)benzamido)propionic Acid], for which the EC50 (Homo sapiens) was more than 1000 nM.

For `COP(=O)(C#Cc1cc(Cl)c(C(=O)N[C@@H](Cc2cccc(S(C)(=O)=O)c2)C(=O)O)c(Cl)c1)c1ccccc1O` (stereo partly drawn) [Example 47], under “Homo sapiens”, the EC50 turned out to be 340 nM.

With `CP(=O)(C#Cc1cc(Cl)c(C(=O)N[C@@H](Cc2cccc(S(C)(=O)=O)c2)C(=O)O)c(Cl)c1)c1ccc(O)c(Cl)c1` (stereo partly drawn) [Example 48], the EC50 (Homo sapiens) worked out at 6.8 nM.
